This is an account of results in US11279733B2, “Peptide antibiotics” (priority 2017, dated 2022).

Series [1] has as its system K. pneumoniae GN_102 PmxR. In outline:
(§1)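 Mid-log cultures grown in Mueller Hinton broth at 37° C were tested by 2-fold broth microdilution at 5×10^5 CFU/mL final. Compounds were dissolved in water and tested over a final range of 32 to 0.015 μg/mL.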

The test system of series [2] is K. pneumoniae ATCC BAA-2146, NDM-1 pos. In outline:
as §1

Another series deals with A. baumannii GN_093 PmxR. The procedure, abridged: as §1
The subject of series [3] is K. pneumoniae GN_106, PmxR. The procedure, abridged:
as §1

A further series deals with P. aeruginosa ATCC 27853. In outline: as §1
A further series concerns E. coli ATCC 25922. In outline: as §1
A further series has as its system A. baumannii ATCC 19606. In outline: as §1
In another series the test system is K. pneumoniae ATCC 13883. In outline:
as §1

Series [4] deals with P. aeruginosa GN_105, PmxR. In outline: as §1
Series [5] has as its system P. aeruginosa GN_043, PmxR. The procedure, abridged: as §1
Series [6] concerns K. pneumoniae ATCC 700603, MDR. The procedure, abridged: as §1
Series [7] concerns S. aureus ATCC 25923, MSSA. In outline:
as §1

A short description of a further series: in vitro. Conditions: human. The procedure, abridged:
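4000 cells/well, 24 h attach (37 °C, 5% CO2); compound 24 h; 5 μM resazurin 2 h, 37 °C; fluorescence ex/em 560/590. CC50 by curve fit.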

In brackets after ≈: the same amount, converted by molar mass. Like-named read-outs stand apart in the source and are kept apart here. Starred links: 1 amine or outer side, 2 acyl side, 3 side chain; linkers in the order of their positions; H or OH if unused. Positions of bridges follow the written chain, without caps; N, C: chain ends. Non-standard residues stand in square brackets, D forms with d. Residues, ends and D or L forms follow the SMILES beside them. *: point of attachment. X12 = O=C(c1ccn(-c2ccccc2)c(=O)c1)*; NH(2-ClPh) = Clc1ccccc1N*; Octanoyl = CCCCCCCC(=O)*; dDap = NC[C@@H](N)C(=O)O; Dab = NCC[C@H](N)C(=O)O; CO = O=C([*:1])[*:2]

`CCCCCCCC(=O)N[C@H](CN)C(=O)N[C@H]1CCNC(=O)[C@H](CC(C)C)NC(=O)[C@H](CCN)NC(=O)[C@H](CCN)NC(=O)[C@H](CC(C)C)NC(=O)[C@@H](Cc2ccccc2)NC(=O)[C@H](CCN)NC1=O` [compound 8976, nC7CO-D-Dap-cyc[L-Dab-L-Dab-D-Phe-L-Leu-L-Dab-L-Dab-L-Leu]] (Octanoyl-[dDap][Dab][Dab][dF]L[Dab][Dab]L; lactam 2-C): the “MIC K. pneumoniae GN_102 PmxR” value in series [1] (GN 102 PmxR) stood at 16 µg/mL (≈ 16.2 µM). In addition, the “MIC, K. pneumoniae ATCC BAA-2146, NDM-1 pos” value in series [2] (ATCC BAA-2146) is 8 µg/mL (≈ 8.11 µM). Also, the “MIC A. baumannii GN_093 PmxR” value against A. baumannii GN_093 PmxR (GN 093 PmxR) came to 8 µg/mL (≈ 8.11 µM). For the same compound, in series [3] (GN 106, PmxR), the “MIC K. pneumoniae GN_106, PmxR” value came to 16 µg/mL (≈ 16.2 µM). In the series on P. aeruginosa ATCC 27853 (ATCC 27853), the “MIC, P. aeruginosa ATCC 27853” value was 2 µg/mL (≈ 2.03 µM). For the same compound, the “MIC, E. coli ATCC 25922” value in the series with E. coli ATCC 25922 (ATCC 25922) came out at 4 µg/mL (≈ 4.06 µM). Besides, the “MIC, A. baumannii ATCC 19606” value against A. baumannii ATCC 19606 (ATCC 19606) was >32 µg/mL. Also, the “MIC, K. pneumoniae ATCC 13883” value against K. pneumoniae ATCC 13883 (ATCC 13883) is 8 µg/mL (≈ 8.11 µM). The “MIC P. aeruginosa GN_105, PmxR” value in series [4] (GN 105, PmxR) was found to be 2 µg/mL (≈ 2.03 µM). For the same compound, the “MIC P. aeruginosa GN_043, PmxR” value in [5] (Table 6, polymyxin-resistant) amounted to 2 µg/mL (≈ 2.03 µM). Besides, the “MIC, K. pneumoniae ATCC 700603, MDR” value in series [6] (ATCC 700603) was 8 µg/mL (≈ 8.11 µM). Also, the “MIC, S. aureus ATCC 25923, MSSA” value in series [7] (ATCC 25923) was >32 µg/mL. Also, the CC50 at 24 h in “in vitro” was > 300 µM.

With `CC(=O)N[C@H](CN)C(=O)N[C@H]1CCNC(=O)[C@H](CC(C)C)NC(=O)[C@H](CCN)NC(=O)[C@H](CCN)NC(=O)[C@H](CC(C)C)NC(=O)[C@@H](Cc2ccccc2)NC(=O)[C@H](CCN)NC1=O` [compound 8980, Ac-D-Dap-cyc[L-Dab-L-Dab-D-Phe-L-Leu-L-Dab-L-Dab-L-Leu]] (Ac-[dDap][Dab][Dab][dF]L[Dab][Dab]L; lactam 2-C), in [1] (GN 102 PmxR), the “MIC K. pneumoniae GN_102 PmxR” value is >32 µg/mL. In [2] (ATCC BAA-2146), the “MIC, K. pneumoniae ATCC BAA-2146, NDM-1 pos” value was determined as 32 µg/mL (≈ 35.5 µM). Besides, the “MIC A. baumannii GN_093 PmxR” value against A. baumannii GN_093 PmxR (GN 093 PmxR) was >32 µg/mL. Besides, the “MIC K. pneumoniae GN_106, PmxR” value in series [3] (GN 106, PmxR) is >32 µg/mL. Further, the “MIC, P. aeruginosa ATCC 27853” value with P. aeruginosa ATCC 27853 (ATCC 27853) was 4 µg/mL (≈ 4.43 µM). Besides, the “MIC, E. coli ATCC 25922” value with E. coli ATCC 25922 (ATCC 25922) was >32 µg/mL. The “MIC, A. baumannii ATCC 19606” value against A. baumannii ATCC 19606 (ATCC 19606) was >32 µg/mL. Besides, the “MIC, K. pneumoniae ATCC 13883” value in the series on K. pneumoniae ATCC 13883 (ATCC 13883) was >32 µg/mL. Moreover, the “MIC P. aeruginosa GN_105, PmxR” value in series [4] (GN 105, PmxR) was >32 µg/mL. In addition, the “MIC P. aeruginosa GN_043, PmxR” value in series [5] (Table 6, polymyxin-resistant) was >32 µg/mL. In series [6] (ATCC 700603), the “MIC, K. pneumoniae ATCC 700603, MDR” value was 32 µg/mL (≈ 35.5 µM). Besides, the “MIC, S. aureus ATCC 25923, MSSA” value in series [7] (ATCC 25923) is >32 µg/mL. Moreover, in “in vitro”, the CC50 at 24 h is > 300 µM.

As to `CC(C)C[C@@H]1NC(=O)[C@H](CCN)NC(=O)[C@H](CCN)NC(=O)[C@H](CC(C)C)NC(=O)[C@@H](Cc2ccccc2)NC(=O)[C@H](CCN)NC(=O)[C@@H](NC(=O)[C@@H](CN)NC(=O)Nc2ccccc2Cl)CCNC1=O` [compound 9188, 2-ClPh-NHCO-D-Dap-cyc[L-Dab-L-Dab-D-Phe-L-Leu-L-Dab-L-Dab-L-Leu]] ({NH(2-ClPh)-CO}-[dDap][Dab][Dab][dF]L[Dab][Dab]L; lactam 2-C), the “MIC K. pneumoniae GN_102 PmxR” value in [1] (K. pneumoniae GN_102 PmxR) was >16 µg/mL. Besides, in series [2] (K. pneumoniae ATCC BAA-2146, NDM-1 pos), the “MIC K. pneumoniae ATCC BAA-2146, NDM-1 pos” value was found to be 8 µg/mL (≈ 7.89 µM). Moreover, the “MIC A. baumannii GN_093 PmxR” value against A. baumannii GN_093 PmxR (A. baumannii GN_093 PmxR) was >16 µg/mL. Besides, in series [3] (K. pneumoniae GN_106, PmxR), the “MIC K. pneumoniae GN_106, PmxR” value is >16 µg/mL. In addition, in the series with P. aeruginosa ATCC 27853 (P. aeruginosa ATCC 27853), the “MIC P. aeruginosa ATCC 27853” value was 2 µg/mL (≈ 1.97 µM). The “MIC E. coli ATCC 25922” value in the series on E. coli ATCC 25922 (E. coli ATCC 25922) was 8 µg/mL (≈ 7.89 µM). In the series with A. baumannii ATCC 19606 (A. baumannii ATCC 19606), the “MIC A. baumannii ATCC 19606” value was >32 µg/mL. Moreover, the “MIC K. pneumoniae ATCC 13883” value in the series on K. pneumoniae ATCC 13883 (K. pneumoniae ATCC 13883) amounted to 16 µg/mL (≈ 15.8 µM). Further, the “MIC P. aeruginosa GN_105, PmxR” value in series [4] (P. aeruginosa GN_105, PmxR) is >16 µg/mL. The “MIC P. aeruginosa GN_043, PmxR” value in series [5] (P. aeruginosa GN_043, PmxR) was >16 µg/mL. Besides, the “MIC K. pneumoniae ATCC 700603, MDR” value in series [6] (K. pneumoniae ATCC 700603, MDR) turned out to be 8 µg/mL (≈ 7.89 µM). Moreover, in [7] (S. aureus ATCC 25923, MSSA), the “MIC S. aureus ATCC 25923, MSSA” value is >16 µg/mL. In addition, the CC50 at 24 h in “in vitro” is > 300 µM.

Turning to `CC(C)C[C@@H]1NC(=O)[C@H](CCN)NC(=O)[C@H](CCN)NC(=O)[C@H](CC(C)C)NC(=O)[C@@H](Cc2ccccc2)NC(=O)[C@H](CCN)NC(=O)[C@@H](NC(=O)[C@@H](CN)NC(=O)c2ccn(-c3ccccc3)c(=O)c2)CCNC1=O` [compound 9189, 4-(1-Ph-pyridinone)-D-Dap-cyc[L-Dab-L-Dab-D-Phe-L-Leu-L-Dab-L-Dab-L-Leu]] (X12-[dDap][Dab][Dab][dF]L[Dab][Dab]L; lactam 2-C), the “MIC K. pneumoniae GN_102 PmxR” value in [1] (GN 102 PmxR) was >32 µg/mL. Also, the “MIC K. pneumoniae ATCC BAA-2146, NDM-1 pos” value in series [2] (ATCC BAA-2146) is 32 µg/mL (≈ 30.3 µM). In the series on A. baumannii GN_093 PmxR (GN 093 PmxR), the “MIC A. baumannii GN_093 PmxR” value is >32 µg/mL. Moreover, the “MIC K. pneumoniae GN_106, PmxR” value in [3] (GN 106, PmxR) was >32 µg/mL. The “MIC P. aeruginosa ATCC 27853” value in the series on P. aeruginosa ATCC 27853 (ATCC 27853) came out at 4 µg/mL (≈ 3.78 µM). Further, the “MIC E. coli ATCC 25922” value against E. coli ATCC 25922 (ATCC 25922) was >32 µg/mL. The “MIC A. baumannii ATCC 19606” value in the series on A. baumannii ATCC 19606 (ATCC 19606) is >32 µg/mL. Besides, the “MIC K. pneumoniae ATCC 13883” value against K. pneumoniae ATCC 13883 (ATCC 13883) was >32 µg/mL. For the same compound, the “MIC P. aeruginosa GN_105, PmxR” value in series [4] (GN 105, PmxR) amounted to 16 µg/mL (≈ 15.1 µM). In series [5] (P. aeruginosa GN_043, PmxR), the “MIC P. aeruginosa GN_043, PmxR” value is 4 µg/mL (≈ 3.78 µM). Moreover, the “MIC K. pneumoniae ATCC 700603, MDR” value in series [6] (ATCC 700603) turned out to be 32 µg/mL (≈ 30.3 µM). Further, the “MIC S. aureus ATCC 25923, MSSA” value in [7] (ATCC 25923) is >32 µg/mL. The CC50 at 24 h in “in vitro” was > 300 µM.
